Assay [1] deals with T1, SARS-CoV-2 Mac1 (Severe acute respiratory syndrome coronavirus 2, UniProt P0DTD1). Kind of assay: biochemical. The format is binding.
Assay [2] addresses T2, MERS-CoV Mac1 (Middle East respiratory syndrome-related coronavirus, UniProt K9N7C7). The experiment in a line: biochemical. The format is binding.
Assay [3] has as its target T3, VEEV Mac (Venezuelan equine encephalitis virus, UniProt P27282). The experiment in a line: biochemical. The format is binding.
In assay [4] the target is T4, CHIKV Mac (Chikungunya virus, UniProt Q8JUX6). Kind of assay: biochemical. The format is binding.
T4 sequence (Q8JUX6 1334-1493 limits assumed): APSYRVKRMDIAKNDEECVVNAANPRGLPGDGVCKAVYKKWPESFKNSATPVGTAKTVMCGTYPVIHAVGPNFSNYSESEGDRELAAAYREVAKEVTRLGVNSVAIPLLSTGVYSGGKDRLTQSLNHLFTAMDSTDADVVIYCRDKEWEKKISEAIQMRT
Assay [5] has as its target T5, MacroD1 (Homo sapiens, UniProt Q9BQ69).
T5 construct: made in house
T5 sequence (Q9BQ69 1-325): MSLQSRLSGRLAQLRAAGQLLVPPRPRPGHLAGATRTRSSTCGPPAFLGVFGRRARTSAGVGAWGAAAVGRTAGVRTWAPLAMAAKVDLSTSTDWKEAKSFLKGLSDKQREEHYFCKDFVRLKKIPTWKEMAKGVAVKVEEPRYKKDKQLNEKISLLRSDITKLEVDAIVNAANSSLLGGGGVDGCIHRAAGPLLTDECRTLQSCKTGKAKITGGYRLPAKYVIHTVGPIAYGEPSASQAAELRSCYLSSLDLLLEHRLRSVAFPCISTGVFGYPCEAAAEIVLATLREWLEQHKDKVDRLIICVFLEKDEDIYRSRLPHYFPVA
The experiment in a line: IC50 curves of binding to MacroD1 (Figure S2). To be noted: Figure S2, fitted.

Assay [6] addresses T6, MacroD2 (Homo sapiens, UniProt A1Z1Q3).
T6 construct: made in house
T6 sequence (A1Z1Q3 1-425): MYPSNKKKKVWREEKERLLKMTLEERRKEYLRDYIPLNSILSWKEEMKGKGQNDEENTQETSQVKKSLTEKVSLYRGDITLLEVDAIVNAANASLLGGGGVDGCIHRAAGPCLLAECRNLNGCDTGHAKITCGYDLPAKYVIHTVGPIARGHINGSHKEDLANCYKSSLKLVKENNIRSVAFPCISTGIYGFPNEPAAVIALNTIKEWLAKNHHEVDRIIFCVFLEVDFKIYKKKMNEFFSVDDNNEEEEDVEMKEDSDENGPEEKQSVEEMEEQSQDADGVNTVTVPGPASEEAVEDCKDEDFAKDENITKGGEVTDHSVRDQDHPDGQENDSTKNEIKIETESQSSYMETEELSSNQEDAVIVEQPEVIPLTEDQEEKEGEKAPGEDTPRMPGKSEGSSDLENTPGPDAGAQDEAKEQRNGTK
The experiment in a line: IC50 curves of binding to MacroD2 (Figure S2). To be noted: Figure S2, fitted.

Assay [7] deals with T1, SARS-CoV-2 Mac1. Kind of assay: biochemical. The format is binding. This is another data set of the same source.
The target in assay [8] is T2, MERS-CoV Mac1. The experiment in a line: biochemical. The format is binding. The source holds these as a separate data set.
Assay [9] deals with T3, VEEV Mac. Kind of assay: biochemical. The format is binding. The source holds these as a separate data set.
For assay [10], the target named is T4, CHIKV Mac. The experiment in a line: biochemical. The format is binding. This is another data set of the same source.
In assay [11] the target is T1, SARS-CoV-2 Mac1. The note with it: cited from earlier work.

The structures appear in SMILES notation. Values joined by “and” are separate entries in the source; they are usually repeats but may differ in a detail not shown here. Identical values can stand only once. Like-named read-outs stand apart in the source and are kept apart here.

T3 sequence (P27282 1330-1489 limits assumed): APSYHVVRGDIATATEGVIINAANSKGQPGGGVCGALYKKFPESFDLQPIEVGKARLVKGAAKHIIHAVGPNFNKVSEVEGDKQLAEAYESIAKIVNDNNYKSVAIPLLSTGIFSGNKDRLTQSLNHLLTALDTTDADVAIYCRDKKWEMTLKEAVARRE
T2 sequence (K9N7C7 1110-1276 limits assumed): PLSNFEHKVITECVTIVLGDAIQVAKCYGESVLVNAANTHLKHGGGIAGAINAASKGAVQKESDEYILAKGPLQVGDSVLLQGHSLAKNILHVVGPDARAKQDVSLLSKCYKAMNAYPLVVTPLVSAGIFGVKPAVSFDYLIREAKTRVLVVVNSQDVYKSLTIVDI

The IC50 is the point on the concentration scale where inhibition reaches its midpoint. As for `N#CC1(c2ccc3c(N)ncnn23)OC(COP(=O)(O)OP(=O)(O)OCC2OC(O)C(O)C2O)C(O)C1O` (stereo not shown) [NDPr], the concentration for half-maximal inhibition (IC50) in assay [1] is 800 nM and 170 nM and 290 nM; in [2], 2900 nM; in [3] it was 510 nM; in assay [4], 920 nM; in assay [5] it was above 10000 nM; in assay [6] it was above 10000 nM.
In the case of `Nc1ncnc2c1ncn2[C@@H]1O[C@H](COP(=O)(O)OP(=O)(O)OC[C@H]2O[C@H](Oc3ccccc3)[C@H](O)[C@@H]2O)[C@@H](O)[C@H]1O` [Ph-ADPr], the half-maximal inhibitory concentration (IC50) in assay [1] was 1900 nM and 730 nM and 1500 nM; in [2] it was 1800 nM; in assay [3], 7300 nM; in assay [4], 126000 nM.
Turning to `N#C[C@@]1(c2ccc3c(N)ncnn23)O[C@H](COP(=O)(O)OP(=O)(O)OC[C@H]2O[C@H](Oc3ccccc3)[C@H](O)[C@@H]2O)[C@@H](O)[C@H]1O` [Ph-NDPr], in assay [1], the “fold better IC50 than ADPr” value was determined as 6000 fold, the “fold better IC50 than NDPr” value is on record as 100 fold and the “fold better IC50 than Ph-ADPr” value came out at 500 fold. Besides, in assay [2], 460 nM corresponded to half-maximal inhibition (IC50). For the same compound, the half-maximal inhibitory concentration (IC50) in [3] stood at 220 nM. Further, the midpoint of inhibition in assay [4], the IC50, lay at 9300 nM.
As a reminder, the Kd is the free concentration of one partner at which half of the binding sites on the other are occupied at equilibrium, for simple one-to-one binding. For `CN(C)c1ccc2c(c1)Oc1cc(N(C)C)ccc1C21OC(=O)c2cc(C(=O)NCCCCCCNC(=O)CCc3cn([C@H]4O[C@H](COP(=O)(O)OP(=O)(O)OC[C@H]5O[C@@H](n6cnc7c(N)ncnc76)[C@H](O)[C@@H]5O)[C@@H](O)[C@H]4O)nn3)ccc21` [TAMRA-ADPr, reference compound], the Kd was found to be 2100 nM in [7] (Kd), 830 nM in [8], 1700 nM in assay [9] and 7200 nM in assay [10].
Regarding `CN(C)c1ccc2c(c1)Oc1cc(N(C)C)ccc1C21OC(=O)c2cc(C(=O)NCCCCCCNC(=O)CCc3cn([C@H]4O[C@H](COP(=O)(O)OP(=O)(O)OC[C@H]5O[C@@](C#N)(c6ccc7c(N)ncnn67)[C@H](O)[C@@H]5O)[C@@H](O)[C@H]4O)nn3)ccc21` [TAMRA-NDPr], in assay [7], the “fold more potent than TAMRA-ADPr” value is reported as “over 100 fold”. In addition, the Kd is 15 nM in [7] (Kd); 130 nM in assay [8]; 39 nM in assay [9]; 208 nM and 210 nM in [10]. Also, the “fold affinity improvement over TAMRA-ADPr” value in [10] is recorded as “more than 30 fold”.
Regarding `CN(C)c1ccc2c(c1)Oc1cc(N(C)C)ccc1C21OC(=O)c2cc(C(=O)NCCCCCCNC(=O)CCc3cn(Cc4ccc(O[C@H]5O[C@H](COP(=O)(O)OP(=O)(O)OC[C@H]6O[C@@](C#N)(c7ccc8c(N)ncnn78)[C@H](O)[C@@H]6O)[C@@H](O)[C@H]5O)cc4)nn3)ccc21` [TAMRA-Ph-NDPr], the “fold more potent than TAMRA-ADPr” value in [7] was “over 100 fold”. Further, the equilibrium dissociation constant (Kd) in assay [7] (Calculated Kd) is 2.3 nM; in [7] (Kd), 5.3 nM; in assay [8] it was 11 nM; in assay [9], 10 nM; in assay [10], 810 nM.
For the compound `Nc1ncnc2c1ncn2C1OC(COP(=O)(O)OP(=O)(O)OCC2OC(Oc3ccc4c(C(F)(F)F)cc(=O)oc4c3)C(O)C2O)C(O)C1O` (stereo not shown) [TFMU-ADPr], in assay [11], the concentration for half-maximal inhibition (IC50) is 590 nM and the “fold more potent than ADPr” value is reported as above 20 fold.

Source of the values: article PMC11106745 (ACS Chemical Biology, 2024).
